Values joined by “and” are separate entries in the source; they are usually repeats but may differ in a detail not shown here. Equal values may be shown once.
Key:
[1] = tested on: human patients; experiment: 14-day multiple dose study, 1600 mg daily: plasma triglycerides and fasting plasma glucose (Example 1); type: in vivo
Procedure: Twelve patients were treated with 16α-fluoro-5-androstene-17-one.
Smoking and intake of xanthine-containing beverages or food (coffee, tea, cola, chocolate) and alcohol within 24 hours, before and during the stay in the clinical research facilities were not allowed.
The human patients received 1600 mg of 16α-fluoro-5-androstene-17-one daily. Controls were set up so that they received 1600 mg of placebo. The triglyceride concentration in the plasma were measured pretreatment and at the end of the study. There was a significant triglyceride-lowering effect caused by the drug in the 14-day, multiple dose, study.
In 12 patients (excluding 2 placebos) receiving 1600 mg of 16α-fluoro-5-androsten-17-one daily, 4 patients, 3 males and one person, had pretreatment triglyceride levels>200 mg/dL. In this group of 4 patients there was a highly significant reduction in triglyceride values, whereas there was no apparent effect in the 8 patients with non-elevated triglycerides. The decline in one patient was additionally quite striking. […]
In addition, the fasting plasma glucose (FPG) levels were also measured in the patients before and after treatment. In the study, 3 of the 4 patients with elevated triglycerides had pre-treatment FPG levels>6.1 mM. The American Diabetes Association (ADA) has recently classified individuals with FPG of 6.1-6.9 mM as having impaired fasting glucose (IFG). Such individuals have 40% probability of developing ADA criteria for diabetes within 5 years.

[2] = tested on: male BKS.Cg-m+/+Leprdb mice; experiment: Buccal administration to diabetic mice: fasting plasma triglycerides (Example 3); type: in vivo
Text: The following example, tested the effects of buccal administration of 16α-fluoro-5-andorsten-17-one (hereinafter “drug”).
Eight-week-old male BKS.Cg-m^+/+Lepr^db mice were obtained from Jackson Laboratories. The mice were initially housed five per cage on Alphacel bedding with ad libitum access to Purina 5015 chow and acidified water. The mice wee housed in the Central Animal Facility (6th Floor, Pharmacy building) with twelve hours of alternating light and darkness.
Five days later, the chow was removed from the mice at approximately 3:30 p.m. This was done so that a fasting plasma glucose level could be obtained on the next day. The next day, a pretreatment plasma glucose determination was made. The mice were lightly anesthetized with Isoflurane and were bled form the orbital sinus (˜400 μL of blood was taken). The blood was obtained between 10:00 a.m. and noon. Blood was kept on ice until analysis. After the blood for the glucose measurement was taken out, the remaining blood was centrifuged at 3000×g for 15 minutes. The plasma was removed and frozen for use in determining plasma triglyceride levels.
Plasma triglyceride levels were determined with a Sigma kit (334-UV). The determination is based on the enzymatic hydrolysis of triglycerides to glycerol and free fatty acids by lipase. Glycerol was subsequently phosphorylated by ATP to produce glycerol-I-phosphate and ADP. ATP was regenerated by a pyruvate kinase-catalyzed reaction between ADP […] with simultaneous oxidation of equimolar amounts of NADH in the presence of lactate dehydrogenase. NADH absorbs at 340 nm, thus the decrease in absorbance, measured at this wavelength, is directly proportional to the triglyceride concentration in this sample.
Triglyceride Reagent A (containing ATP, lactate dehydrogenase, lipase, NADH, phosphoenol pyruvate, pyruvate kinase) and Triglyceride Reagent B were reconstituted with 10 mL and 2 mL of distilled water respectively. The Sample Reagent was prepared by adding 0.25 mL of Triglyceride reagent B to 10 mL to Triglyceride Reagent A. Blank, standard (50, 100 and 200 mg/dL) and sample tubes were prepared. One mL of Sample Reagent was added to all tubes. To the Blank tube, 20 μL of distilled water was added. For each Sample tube, 20 μL of plasma was added to the tube. All tubes were incubated at room temperature for 10 minutes. The tubes were read against a Reference containing distilled water. Triglyceride concentration in the samples were calculated by subtracting the absorbance of the Sample form the absorbance of the Blank and using the following formula: […]
One week after obtaining the mice, the mice were distributed into either groups of 6 mice (Control, buccal and 5 mg/kg drug buccal), or 7 mice (10 mg/kg drug buccal). The mice were weighed.
The buccally administered groups were treated with a suspension of drug, 16α-5-androsten-17-one obtained from Eminent Services Corp. The suspension consisted of 100 mg/mL of micronized fluasterone (16α-fluoro-5-androsten-17-one) in 0.9% saline plus 2% Tween 80 and 0.4% carboxymethyl cellulose. The mice were lightly anesthetized with isoflurane and then injected i.m. with 0.05 mL of a solution of ketamine (50 mg/kg), xylazine (10 mg.kg) and atropine (0.1 mg/kg) injected near tail). Approximately 10 minutes post injection, while the animals were anesthetized, the mice were placed on their backs and were treated with one-half of the dose of drug necessary in each buccal area. The mice remained anesthetized and on their backs for approximately 30 minutes post-treatment. The 5 mg/kg drug group was treated with 2.04 μL of suspension (1.02 μL per buccal area) and the 10 mg/kg drug group was treated with 4.2 μL(2.1 μL per buccal area) while the Control Buccal group received 4.2 μL (2.1 μL per buccal area) for the duration of the experiment. The cages of the mice were placed on heating pads on a low temperature to prevent loss of animals due to hypothermia during anesthesia. […]

[3] = tested on: normal young men and women; experiment: Phase I trial, oral fluasterone 14 days: HDL levels (Example 5a); type: in vivo, human
Procedure: (a) In a phase I trial in normal young men and women fluasterone was administered in a daily oral dose of 800 mg or 1600 mg for 14 days. The effect of this treatment on HDL levels in males and females is seen in the table hereinbelow.

[4] = tested on: male BKS.Cg-m+/+Leprdb mice; experiment: Fasting plasma glucose levels in diabetic mice (Example 9); type: in vivo

C[C@]12CCCCC1=CC[C@@H]1[C@@H]2CC[C@]2(C)C(=O)[C@H](F)C[C@@H]12 [fluasterone, 16α-fluoro-5-androsten-17-one]
Plasma triglyceride Conc. ([1]; Elevated Triglyceride Group, Female (1), pretreatment): 540 ± 42 (n = 2) mg/dL
Plasma triglyceride Conc. ([1]; Elevated Triglyceride Group, Female (1), treatment 1600 mg daily, 14-day study): 118 ± 19 (n = 3) mg/dL
Plasma triglyceride Conc. ([1]; Elevated Triglyceride Group, Female and Male (4), pretreatment): 385 ± 116 (n = 8) mg/dL
Plasma triglyceride Conc. ([1]; Elevated Triglyceride Group, Female and Male (4), treatment 1600 mg daily, 14-day study): 154 ± 57 (n = 11) mg/dL
Plasma triglyceride Conc. ([1]; Elevated Triglyceride Group, Male (3), pretreatment): 333 ± 75 (n = 6) mg/dL
Plasma triglyceride Conc. ([1]; Elevated Triglyceride Group, Male (3), treatment 1600 mg daily, 14-day study): 168 ± 61 (n = 8) mg/dL
Plasma triglyceride Conc. ([1]; Normal Triglyceride Group (8 patients), pretreatment): 106 ± 34 (n = 16) mg/dL
Plasma triglyceride Conc. ([1]; Normal Triglyceride Group (8 patients), treatment 1600 mg daily, 14-day study): 128 ± 77 (n = 23) mg/dL
FPG levels of individuals with IFG ([1]; pretreatment): 6.28 ± 0.33 (6) mM
FPG levels of individuals with IFG ([1]; treatment 1600 mg daily, p < 0.02): 5.63 ± 0.45 (8) (p < 0.02) mM
Plasma triglycerides ([2]; 5 mg/kg buccal group, pre-treatment, group mean): 138.4 ± 44.6 mg/dL
Plasma triglycerides ([2]; 5 mg/kg buccal group, pre-treatment, individual mice, listed as drug): 116.8 mg/dL and 222.8 mg/dL and 120.6 mg/dL and 110.7 mg/dL and 153.8 mg/dL and 105.9 mg/dL
Plasma triglycerides ([2]; 5 mg/kg buccal, after 6 days of treatment, group mean, p < 0.01 vs. control buccal): 110.6 ± 28.0 mg/dL
Plasma triglycerides ([2]; 5 mg/kg buccal, after 6 days of treatment, individual mice, listed as drug): 77.2 mg/dL and 106.0 mg/dL and 87.3 mg/dL and 414.0 mg/dL and 146.6 mg/dL and 105.4 mg/dL
Plasma triglycerides ([2]; 5 mg/kg buccal, after 13 days of treatment, group mean, p < 0.0005 vs. Control buccal): 82.0 ± 12.3 mg/dL
Plasma triglycerides ([2]; 5 mg/kg buccal, after 13 days of treatment, individual mice, listed as drug): 97.8 mg/dL and 89.3 mg/dL and 65.3 mg/dL and 79.1 mg/dL and 78.3 mg/dL
Plasma triglycerides ([2]; 10 mg/kg buccal group, pre-treatment, group mean): 118.7 ± 38.1 mg/dL
Plasma triglycerides ([2]; 10 mg/kg buccal group, pre-treatment, individual mice, listed as drug): 97.1 mg/dl and 102.1 mg/dl (2×) and 89.4 mg/dl and 184.4 mg/dl and 93.7 mg/dl and 162.1 mg/dl
Plasma triglycerides ([2]; 10 mg/kg buccal, after 6 days of treatment, group mean, p < 0.01 vs. Control buccal): 96.5 ± 32.4 mg/dL
Plasma triglycerides ([2]; 10 mg/kg buccal, after 6 days of treatment, individual mice, listed as drug): 108.7 mg/dL and 83.5 mg/dL and 96.8 mg/dL and 61.2 mg/dL and 104.6 mg/dL and 64.3 mg/dL and 156.7 mg/dL
Plasma triglycerides ([2]; 10 mg/kg buccal, after 13 days of treatment, group mean, P < 0.001 vs. Control buccal): 104.0 ± 16.6 mg/dL
Plasma triglycerides ([2]; 10 mg/kg buccal, after 13 days of treatment, individual mice, listed as drug): 102.0 mg/dL and 83.5 mg/dL and 93.6 mg/dL and 133.5 mg/dL and 118.1 mg/dL and 97.8 mg/dL and 99.2 mg/dL
HDL Levels ([3]; 800 mg daily oral for 14 days, Females (6), treatment, less than pretreatment, p < 0.015): 46.1 ± 6.2 mg/dL
HDL Levels ([3]; 800 mg daily oral for 14 days, Males (6), treatment): 45.3 ± 15.9 mg/dL
HDL Levels ([3]; 800 mg daily oral, Females (6), pretreatment): 59.2 ± 7.0 mg/dL
HDL Levels ([3]; 800 mg daily oral, Males (6), pretreatment): 50.3 ± 20.1 mg/dL
HDL Levels ([3]; 1600 mg daily oral for 14 days, Females (5), treatment): 43.0 ± 8.1 mg/dL
HDL Levels ([3]; 1600 mg daily oral for 14 days, Males (7), treatment): 40.2 ± 7.4 mg/dL
HDL Levels ([3]; 1600 mg daily oral, Females (5), pretreatment): 45.3 ± 10.1 mg/dL
HDL Levels ([3]; 1600 mg daily oral, Males (7), pretreatment): 46.1 ± 6.6 mg/dL
Fasting Plasma Glucose Levels ([4]; 5 mg/kg i.p., treatment day 0): 270 ± 81.9 mg/dL
Fasting Plasma Glucose Levels ([4]; 5 mg/kg i.p., treatment day 7): 434 ± 264 mg/dL
Fasting Plasma Glucose Levels ([4]; 5 mg/kg i.p., treatment day 14): 410 ± 32.1 mg/dL
Fasting Plasma Glucose Levels ([4]; 5 mg/kg i.p., treatment day 17, greater than s.c. Control, p < 0.01): 635 ± 77.3^3 mg/dL
Fasting Plasma Glucose Levels ([4]; 5 mg/kg s.c., treatment day 0): 245 ± 102 mg/dL
Fasting Plasma Glucose Levels ([4]; 5 mg/kg s.c., treatment day 7): 173 ± 58.3 mg/dL
Fasting Plasma Glucose Levels ([4]; 5 mg/kg s.c., treatment day 14, less than s.c. Control, p < 0.001): 134 ± 29.8^1 mg/dL
Fasting Plasma Glucose Levels ([4]; 5 mg/kg s.c., treatment day 17, less than s.c. Control, p < 0.001): 96.0 ± 18.5^1 mg/dL
Fasting Plasma Glucose Levels ([4]; 200 mg/kg oral, treatment day 0): 245 ± 72.1 mg/dL
Fasting Plasma Glucose Levels ([4]; 200 mg/kg oral, treatment day 7): 181 ± 69.3 mg/dL
Fasting Plasma Glucose Levels ([4]; 200 mg/kg oral, treatment day 14, less than oral Control, p < 0.001): 107 ± 12.2^2 mg/dL
Fasting Plasma Glucose Levels ([4]; 200 mg/kg oral, treatment day 17, less than oral Control, p < 0.001): 104 ± 24.8^2 mg/dL
